Experimental data: ChEMBL document CHEMBL4028834, “Stereoselective synthesis of enantiopure N-substituted pyrrolidin-2,5-dione derivatives by 1,3-dipolar cycloaddition and assessment of their in vitro antioxidant and antibacterial activities” (Bioorg Med Chem Lett, 2017)
≈ marks a conversion by molar mass, not a printed value. Calls of active or inactive are those of the source. The rule behind the calls is not given here.

Key:
Bacillus subtilis [1] = assay: Antibacterial activity against Bacillus subtilis JN934392 assessed as diameter of inhibition zone at 15 microg/well by agar well diffusion method; format: functional; details: read-out: DIZ
Bacillus cereus [2] = assay: Antibacterial activity against Bacillus cereus JN934390 assessed as diameter of inhibition zone at 15 microg/well by agar well diffusion method; format: functional; details: read-out: DIZ
Listeria monocytogenes [3] = assay: Antibacterial activity against Listeria monocytogenes assessed as diameter of inhibition zone at 15 microg/well by agar well diffusion method; format: functional; details: read-out: DIZ
Micrococcus luteus [4] = assay: Antibacterial activity against Micrococcus luteus assessed as diameter of inhibition zone at 15 microg/well by agar well diffusion method; format: functional; details: read-out: DIZ
Staphylococcus aureus [5] = assay: Antibacterial activity against Staphylococcus aureus ATCC 6538 assessed as diameter of inhibition zone at 15 microg/well by agar well diffusion method; format: functional; details: read-out: DIZ
Salmonella enteritidis [6] = assay: Antibacterial activity against Salmonella enterica serotype Enteritidis ATCC 43972 assessed as diameter of inhibition zone at 15 microg/well by agar well diffusion method; format: functional, Salmonella enterica subsp. enterica serovar Enteritidis; details: read-out: DIZ
Klebsiella pneumoniae [7] = assay: Antibacterial activity against Klebsiella pneumoniae assessed as diameter of inhibition zone at 15 microg/well by agar well diffusion method; format: functional; details: read-out: DIZ
Escherichia coli [8] = assay: Antibacterial activity against Escherichia coli ATCC 25922 assessed as diameter of inhibition zone at 15 microg/well by agar well diffusion method; format: functional; details: read-out: DIZ
[9] = Antioxidant activity assessed as DPPH free radical scavenging activity incubated for 20 mins in dark; format: functional
[10] = Antioxidant activity assessed as DPPH free radical scavenging activity at 0.5 mg/ml incubated for 20 mins in dark (reference value: 1 to 9 %); format: functional
[11] = Antioxidant activity assessed as DPPH free radical scavenging activity at 1 mg/ml incubated for 20 mins in dark (reference value: 1 to 9%); format: functional
[12] = Antioxidant activity assessed as DPPH free radical scavenging activity at 2 mg/ml incubated for 20 mins in dark (reference value: 1 to 9%); format: functional
[13] = Antioxidant activity assessed as DPPH free radical scavenging activity at 2.5 mg/ml incubated for 20 mins in dark (reference value: 1 to 9%); format: functional
[14] = Antioxidant activity assessed as DPPH free radical scavenging activity at 3 mg/ml incubated for 20 mins in dark (reference value: 1 to 9%); format: functional
[15] = Antioxidant activity assessed as reduction in beta-carotene/linoleic acid bleaching activity after 2 hrs by spectrophotometric method; format: functional
[16] = Antioxidant activity assessed as reduction in beta-carotene/linoleic acid bleaching activity at 0.5 mg/ml after 2 hrs by spectrophotometric method (reference value: 1 to 8 %); format: functional; set-up: scale not given: the % may be the effect or the level left
[17] = Antioxidant activity assessed as reduction in beta-carotene/linoleic acid bleaching activity at 1 mg/ml after 2 hrs by spectrophotometric method (reference value: 1 to 8%); format: functional; set-up: scale not given: the % may be the effect or the level left
[18] = Antioxidant activity assessed as reduction in beta-carotene/linoleic acid bleaching activity at 2 mg/ml after 2 hrs by spectrophotometric method (reference value: 1 to 8%); format: functional; set-up: scale not given: the % may be the effect or the level left
[19] = Antioxidant activity assessed as reduction in beta-carotene/linoleic acid bleaching activity at 2.5 mg/ml after 2 hrs by spectrophotometric method (reference value: 1 to 8%); format: functional; set-up: scale not given: the % may be the effect or the level left
[20] = Antioxidant activity assessed as reduction in beta-carotene/linoleic acid bleaching activity at 3 mg/ml after 2 hrs by spectrophotometric method (reference value: 1 to 8%); format: functional; set-up: scale not given: the % may be the effect or the level left
[21] = Antioxidant activity assessed as ABTS radical scavenging activity incubated for 2 hrs in dark by spectrophotometric analysis; format: functional
[22] = Antioxidant activity assessed as ABTS radical scavenging activity at 0.5 mg/ml incubated for 2 hrs in dark by spectrophotometric analysis (reference value: 1 to 9 %); format: functional
[23] = Antioxidant activity assessed as ABTS radical scavenging activity at 1 mg/ml incubated for 2 hrs in dark by spectrophotometric analysis (reference value: 1 to 9%); format: functional
[24] = Antioxidant activity assessed as ABTS radical scavenging activity at 2 mg/ml incubated for 2 hrs in dark by spectrophotometric analysis (reference value: 1 to 9%); format: functional
[25] = Antioxidant activity assessed as ABTS radical scavenging activity at 2.5 mg/ml incubated for 2 hrs in dark by spectrophotometric analysis (reference value: 1 to 9%); format: functional
[26] = Antioxidant activity assessed as ABTS radical scavenging activity at 3 mg/ml incubated for 2 hrs in dark by spectrophotometric analysis (reference value: 1 to 9%); format: functional
Bacillus cereus [27] = assay: Antibacterial activity against Bacillus cereus JN934390 after 24 hrs by MTT dye based microdilution method; format: functional; details: JN934390, 24 h
Listeria monocytogenes [28] = assay: Antibacterial activity against Listeria monocytogenes after 24 hrs by MTT dye based microdilution method; format: functional
Micrococcus luteus [29] = assay: Antibacterial activity against Micrococcus luteus after 24 hrs by MTT dye based microdilution method; format: functional
Staphylococcus aureus [30] = assay: Antibacterial activity against Staphylococcus aureus ATCC 6538 after 24 hrs by MTT dye based microdilution method; format: functional; details: ATCC 6538, 24 h
Salmonella enteritidis [31] = assay: Antibacterial activity against Salmonella enterica serotype Enteritidis ATCC 43972 after 24 hrs by MTT dye based microdilution method; format: functional, Salmonella enterica subsp. enterica serovar Enteritidis; details: ATCC 43972, 24 h
Klebsiella pneumoniae [32] = assay: Antibacterial activity against Klebsiella pneumoniae after 24 hrs by MTT dye based microdilution method; format: functional
Bacillus subtilis [33] = assay: Antibacterial activity against Bacillus subtilis JN934392 after 24 hrs by MTT dye based microdilution method; format: functional; details: JN934392, 24 h
Bacillus subtilis [34] = assay: Antibacterial activity against Bacillus subtilis JN934392 assessed as diameter of inhibition zone at 125 mg/ml by agar well diffusion method; format: functional; details: read-out: DIZ
Bacillus cereus [35] = assay: Antibacterial activity against Bacillus cereus JN934390 assessed as diameter of inhibition zone at 125 mg/ml by agar well diffusion method; format: functional; details: read-out: DIZ
Listeria monocytogenes [36] = assay: Antibacterial activity against Listeria monocytogenes assessed as diameter of inhibition zone at 125 mg/ml by agar well diffusion method; format: functional; details: read-out: DIZ
Micrococcus luteus [37] = assay: Antibacterial activity against Micrococcus luteus assessed as diameter of inhibition zone at 125 mg/ml by agar well diffusion method; format: functional; details: read-out: DIZ
Staphylococcus aureus [38] = assay: Antibacterial activity against Staphylococcus aureus ATCC 6538 assessed as diameter of inhibition zone at 125 mg/ml by agar well diffusion method; format: functional; details: read-out: DIZ
Salmonella enteritidis [39] = assay: Antibacterial activity against Salmonella enterica serotype Enteritidis ATCC 43972 assessed as diameter of inhibition zone at 125 mg/ml by agar well diffusion method; format: functional, Salmonella enterica subsp. enterica serovar Enteritidis; details: read-out: DIZ
Klebsiella pneumoniae [40] = assay: Antibacterial activity against Klebsiella pneumoniae assessed as diameter of inhibition zone at 125 mg/ml by agar well diffusion method; format: functional; details: read-out: DIZ
Escherichia coli [41] = assay: Antibacterial activity against Escherichia coli ATCC 25922 assessed as diameter of inhibition zone at 125 mg/ml by agar well diffusion method; format: functional
Bacillus subtilis [42] = assay: Bactericidal activity against Bacillus subtilis JN934392 after 48 hrs by MTT dye based microdilution method; format: functional; details: JN934392, 48 h
Bacillus cereus [43] = assay: Bactericidal activity against Bacillus cereus JN934390 after 48 hrs by MTT dye based microdilution method; format: functional; details: JN934390, 48 h
Listeria monocytogenes [44] = assay: Bactericidal activity against Listeria monocytogenes after 48 hrs by MTT dye based microdilution method; format: functional
Micrococcus luteus [45] = assay: Bactericidal activity against Micrococcus luteus after 48 hrs by MTT dye based microdilution method; format: functional
Staphylococcus aureus [46] = assay: Bactericidal activity against Staphylococcus aureus ATCC 6538 after 48 hrs by MTT dye based microdilution method; format: functional; details: ATCC 6538, 48 h
Salmonella enteritidis [47] = assay: Bactericidal activity against Salmonella enterica serotype Enteritidis ATCC 43972 after 48 hrs by MTT dye based microdilution method; format: functional, Salmonella enterica subsp. enterica serovar Enteritidis; details: ATCC 43972, 48 h
Klebsiella pneumoniae [48] = assay: Bactericidal activity against Klebsiella pneumoniae after 48 hrs by MTT dye based microdilution method; format: functional
Listeria monocytogenes [49] = assay: Potency index, ratio of compound DIZ to chloramphenicol DIZ for Listeria monocytogenes; format: functional

`O=C(N[C@H](CO)[C@H](O)c1ccc([N+](=O)[O-])cc1)C(Cl)Cl` [CHLORAMPHENICOL] gave a zone of inhibition at 15 µg/disc (Bacillus subtilis [1]) of 24 mm, a zone of inhibition at 15 µg/disc (Bacillus cereus [2]) of 26 mm and a zone of inhibition at 15 µg/disc (Listeria monocytogenes [3]) of 12 mm. The zone of inhibition at 15 µg/disc (Micrococcus luteus [4]) was 20 mm, the zone of inhibition at 15 µg/disc (Staphylococcus aureus [5]) was 17 mm and the zone of inhibition at 15 µg/disc (Salmonella enteritidis [6]) was 16 mm. It also gave a zone of inhibition at 15 µg/disc (Klebsiella pneumoniae [7]) of 22 mm and a zone of inhibition at 15 µg/disc (Escherichia coli [8]) of 23.5 mm.

For `Cc1ccc(N2C(=O)[C@H]3[C@H](ON4[C@@H]3C(=O)N(C)[C@@]43C[C@H](C)CC[C@H]3C(C)C)C2=O)c(C)c1`, the Activity [9] was “Dose-dependent effect”, the IC50 [9] was 500 µg/mL (≈ 1.14 mM) and the Activity [10] was 49.9%. For the same molecule, the Activity [11] was 57%, the Activity [12] was 72% and the Activity [13] was 77.1%. The Activity [14] was 73.2 to 89.3%, the IC50 [15] was 430 µg/mL (≈ 0.978 mM) and the Activity [16] was 51%. It also gave an Activity [17] of 53.1%, an Activity [18] of 57% and an Activity [19] of 65.6%. For the same molecule, the Activity [20] was 71.3%, the IC50 [21] was 420 µg/mL (≈ 0.956 mM) and the Activity [22] was 52.9%. It also gave an Activity [23] of 69%, an Activity [24] of 79.4% and an Activity [25] of 82.6%. The Activity [26] was 85.8%, the MIC (Bacillus cereus [27]) was 3120 µg/mL (≈ 7.1 mM) and the MIC (Listeria monocytogenes [28]) was 1560 µg/mL (≈ 3.55 mM). The MIC (Micrococcus luteus [29]) was 6250 µg/mL (≈ 14.2 mM), the MIC (Staphylococcus aureus [30]) was 6250 µg/mL (≈ 14.2 mM) and the MIC (Salmonella enteritidis [31]) was 3120 µg/mL (≈ 7.1 mM). The MIC (Klebsiella pneumoniae [32]) was 3120 µg/mL (≈ 7.1 mM), the MIC (Bacillus subtilis [33]) was 3120 µg/mL (≈ 7.1 mM) and the zone of inhibition at 125000 µg/mL (Bacillus subtilis [34]) was 20.7 mm. It also gave a zone of inhibition at 125000 µg/mL (Bacillus cereus [35]) of 21.7 mm, a zone of inhibition at 125000 µg/mL (Listeria monocytogenes [36]) of 24.7 mm and a zone of inhibition at 125000 µg/mL (Micrococcus luteus [37]) of 9.66 mm. The zone of inhibition at 125000 µg/mL (Staphylococcus aureus [38]) was 22 mm, the zone of inhibition at 125000 µg/mL (Salmonella enteritidis [39]) was 20.3 mm and the zone of inhibition at 125000 µg/mL (Klebsiella pneumoniae [40]) was 23 mm. The “diameter of the inhibition zone (DIZ)” value (Escherichia coli [41]) was “inactive”, the MBC (Bacillus subtilis [42]) was 12500 µg/mL (≈ 28.4 mM) and the MBC (Bacillus cereus [43]) was 25000 µg/mL (≈ 56.9 mM). It also gave an MBC (Listeria monocytogenes [44]) of 3120 µg/mL (≈ 7.1 mM), an MBC (Micrococcus luteus [45]) of 50000 µg/mL (≈ 114 mM) and an MBC (Staphylococcus aureus [46]) of 12500 µg/mL (≈ 28.4 mM). For the same molecule, the MBC (Salmonella enteritidis [47]) was 12500 µg/mL (≈ 28.4 mM), the MBC (Klebsiella pneumoniae [48]) was 6250 µg/mL (≈ 14.2 mM) and the Ratio (Listeria monocytogenes [49]) was 2.
